Patent US20240368559A1, “METHOD OF PRODUCING BRAIN MICROVASCULAR ENDOTHELIAL-LIKE CELLS AND USE THEREOF” (PUBLIC UNIVERSITY CORPORATION NAGOYA CITY UNIVERSITY, priority 2021, published 2024)

Tests used:
Assay type in all cases: cell-based
[1] = tested on: iBPCs (human iPS cell-derived brain pericytes); assay: Cell scratch test of cell migration ability and proliferation potential of iBPCs; details: FIGS. 23 and 24
Procedure: (§1) The above-described hiPSCs were used and induced to differentiate into iBPCs. Human iPS cells cultured in mTeSR plus medium were detached by using TrypLE Select, seeded on a VTN-N-coated culture dish at a density of 2×10^4 cells/cm^2, and then cultured in mTeSR plus medium containing 10 μM of Y-27632 (manufactured by Focus Biomolecules) for 24 hours. Thereafter, the cells were cultured for 1 day in modified DMEM/F12 medium (DMEM/F12 containing 0.1% chemically defined lipid concentrate, 0.1×insulin-transferrin-selenium (from Thermo Fisher Scientific), 2 mM GlutaMAX (from Sigma-Aldrich), […] 1-thioglycerol (from Sigma-Aldrich), 50 μg/mL of L-ascorbic acid phosphate magnesium salt n-hydrate, and 1×penicillin-streptomycin solution) supplemented with 5 μM CHIR-99021 (manufactured by Focus Biomolecules). Next, the cells were cultured for 1 day in modified DMEM/F12 medium containing 50 ng/mL of FGF2. […]
Samples used were iBPCs (X (+)) induced to differentiate by adding A 83-01 in the above method and iBPCs (X (−)) induced to differentiate without adding A 83-01 in the above method. […] How the cells migrated 0, 12, and 24 hours of culture after cell scratching was checked by bright field observation, and the scratched area was calculated by Image J.

[2] = tested on: iBMELCs (human iPS cell-derived brain microvascular endothelial-like cells); assay: Transendothelial electrical resistance (TEER) of iBMELCs induced to differentiate from iEPCs under varied medium and coating conditions; details: FIG. 6
Text: iEPCs were induced to differentiate into iBMELCs under conditions where the coating agent and the additive added to the culture medium each varied. For coating the culture dish, as described above, two components of FBN and COL4, or three components obtained by adding any one component of VTN-N, LN221, LN411F, and LN511F to these two components, or four components obtained by adding LN411F and LN511F to these two components were used. As the third component, Laminin211, Laminin411, Laminin511, Agrin, Laminin-mix, Laminin-fragment mix, or hep ex was also used. […]
In order to examine the effect of cryopreserving iEPCs induced to differentiate from hiPSCs, the difference in transendothelial electrical resistance (TEER value) was compared between the presence and absence of freezing. A frozen group, in which iEPCs on day 14 of differentiation were frozen and thawed by the above-described method, and a unfrozen group of unfrozen iEPCs on day 14 of differentiation were induced to differentiate into iBMELCs by the above-described method while using the above-described differentiation-inducing condition A, and the TEER value was then measured. […] As used herein, the “maximum TEER value” means the maximum value among the TEER values measured on each day from day 2 after seeding to day 10 after seeding. […]

[3] = tested on: iBPCs (human iPS cell-derived brain pericytes); assay: Brain pericyte marker gene expression in iBPCs by RT-q PCR; details: FIG. 20; 1 μM A 83-01 from day 8, iBPCs on day 12 of differentiation
Procedure: as §1
The expression level of each brain pericyte marker gene was analyzed by RT-q PCR. […] Relative expression levels of mRNA in X (+) and X (−) were determined while the expression level of mRNA in hPCs was set to 1 as a reference. […]

[4] = tested on: iBPCs (human iPS cell-derived brain pericytes); assay: Brain pericyte marker protein expression in iBPCs by immunostaining; details: FIGS. 21 and 22; 1 μM A 83-01 in differentiation medium
Procedure: as §1, with “FGF2. Then, the cells were cultured for 2 days in EGM-2 medium (EGM-2 basal medium containing 2% FBS, 0.2 μg/mL hydrocortisone, 10 ng/mL FGF2, 20 ng/mL R3-IGF-1, 1 μg/mL ascorbic acid, 5 ng/mL hEGF, gentamicin, and amphotericin B) supplemented with 50 ng/mL PDGF-BB and 0.5 ng/mL VEGF. During this time, the medium was changed every day. On day 4, cells treated with 10 μM Y-27632 for 1 hour were dissociated using TrypLE Select, subcultured on a new VTN-N-coated culture dish at 1.25×10^4 cells/cm^2, and then induced to differentiate in an EGM-2 medium containing 50 ng/mL PDGF-BB. During this time, the medium was changed every day. On day 8 of differentiation, the cells were induced to differentiate in an EGM-2 medium containing 50 ng/mL PDGF-BB, and 1 μM A 83-01. During this time, the medium was changed every day.” for “FGF2.”
iBPCs (X(+) and X(−)) induced to differentiate from hiPSCs by the above method were analyzed by immunostaining in order to check the properties as BPCs. […] After that, the cells were washed three times with D-PBS (−), and then analyzed with an Operetta High-Content Imaging System (manufactured by PerkinElmer). […]

## Cc1cccc(-c2nn(C(=S)Nc3ccccc3)cc2-c2ccnc3ccccc23)n1 [A 83-01]
[1]; X (+) vs X (−)
  cell migration ability and proliferation potential of iBPCs: enhance the cell migration ability and proliferation potential of iBPCs
[1]; iBPCs (X (+)), 24 hours after cell scratching, number of samples 1
  relative distance of the cell scratch portion (0 hour = 1): 0
[2]; 1 μM vs 10 μM
  maximum TEER value (barrier function of iBMELCs) at content of 1 μM: high barrier function equivalent to the case of the content of 10 μM
[2]; 0.1, 1 or 10 μM in HE-SFM with 20 ng/mL FGF2 and 7.5% B27s, FBN+COL4 coating
  maximum TEER value (barrier function of iBMELCs), added vs not added: the barrier function of iBMELCs was higher than that when A 83-01 was not added
[3]
  relative mRNA expression level of α-SMA (human primary pericytes = 1): suppress the gene expression of α-SMA to the same extent as that of human primary pericytes
[4]
  expression of NG2 (relative average fluorescence intensity, X (−) = 1): did not significantly affect
  expression of PDGFR-β (relative average fluorescence intensity, X (−) = 1): did not significantly affect
  protein expression of α-SMA (relative average fluorescence intensity, X (−) = 1): suppress the protein expression of α-SMA
